Legend:
[1] = system: cell surface fucosylation; experiment: Flow cytometry of cell surface fucosylation (AAL lectin) in melanoma cells; type: cell-based, human; conditions: 250 μM, 72 h, panel of melanoma cell lines
Procedure: Indicated cells were treated for 72 h with DMSO, 250 μM fucosyltransferase inhibitor (FUTi) (Millipore Sigma (St. Louis, MO)), or 250 μM of L-fucose (Biosynth (Oak Terrace, IL)). After 72 h, cells were stained with 0.1 μM PKH26 (Millipore Sigma (St. Louis, MO)) prior to fixation in 4% formaldehyde solution. The cells were stained with anti-HLA-DRB1 (rabbit anti-human HLA-DRB1 (0.2 μg/mL, ab92371, Abcam (Cambridge, UK)) and fluorescein AAL (0.2 μg/ml. Vector Labs (Burlingame, CA)), or anti-human or anti-mouse PD-L1 (Novus Biologicals (Centennial, CO) or Biolegend (San Diego, CA), respectively) overnight. The following day the cells were washed 3 times prior to adding AlexaFluor 594 donkey anti-rabbit (0.8 μg/mL, ThermoFisher Scientific (Waltham, MA)). Cells were washed 3 times and then subject to flow cytometric analyses using a FACSCalibur™ (BD Biosciences (San Jose, CA)). Samples were analyzed using FlowJo™ analysis software (BD Biosciences (San Jose, CA)). Median values of DRB1 and AAL were normalized to PKH26 values and statistical analysis was performed using GraphPad Prism™.

PD-L1 = experiment: Flow cytometry of cell surface PD-L1 in melanoma cells; type: cell-based, human or mouse; conditions: 250 μM; WM793, SW1, SM1 cells
Excerpt: FIGS. 22A, 22B, 22C, 22D, 22E, and 22F show reduced cell surface class II MHC during anti-PD-1 failure; L-PLA schematic and the effects of L-fucose on tumoral PD-L1 expression and peripheral human CD4^+ T cell fucosylation and IFNγ production/secretion. […] We stained for (i) HLA-DRB1 using anti-HLA-DRB1 followed by (+) oligo-conjugated PLA secondary and (ii) fucosylated glycan using biotinylated (“B”) AAL lectin followed by anti-biotin followed by (−) oligo-conjugated PLA secondary. Ligated PLA oligos were subjected to rolling circle amplification PCR (RCA PCR), giving rise to fluorescent punctae. […] Healthy human donor peripheral CD4^+ T cells were treated with DMSO (D) and 250 μM FUTi (i) or L-fuc (L-f) and subjected to (22E) IB analysis for changes in fucosylation (AAL IB) or (22F) ELISA assay to measure changes in IFNγ production/secretion. *=p-value<0.05.
Indicated cells were treated for 72 h with DMSO, 250 μM fucosyltransferase inhibitor (FUTi) (Millipore Sigma (St. Louis, MO)), or 250 μM of L-fucose (Biosynth (Oak Terrace, IL)). After 72 h, cells were stained with 0.1 μM PKH26 (Millipore Sigma (St. Louis, MO)) prior to fixation in 4% formaldehyde solution. […]

SM1 melanoma tumors = SM1 melanoma tumors in C57BL/6 mice fed control or L-fucose water; type: in vivo, mouse
Procedure: Tumors of SW1 or SMI melanoma cells from C3H/HeJ or C57BL/6 mice, respectively) were digested using 1× tumor digest buffer (0.5 mg/ml. Collagenase I, 0.5 mg/ml. Collagenase IV, 0.25 mg/ml. Hyalyronidase V. 0.1 mg/ml. DNAse I in HBSS (Millipore Sigma (St. Louis, MO)). Tumors were homogenized using the Miltenyi MACs dissociator. Red blood cells were lysed using ACK lysis buffer (Life Technologies, (Grand Island, NY)). Tumor homogenate cells were counted using a standard hemocytometer. (7) Flow Cytometry (a) TIL Profiling:
Single-cell suspensions from tumor and spleen tissue were stained with Live/Dead Zombie NIR (Biolegend, (San Diego, CA)) at 1:1,000 in PBS for 20 min. Cell suspensions were spun down and stained with the following antibodies: APC anti-mouse CD3 (0.5 μg/mL, BD Biosciences (San Jose, CA)), Pacific Blue anti-mouse CD4 ([…], BD Biosciences (San Jose, CA)), BV785 anti-mouse CD8 (0.5 μg/mL, BD Biosciences (San Jose, CA)), PerCP anti-mouse CD25 ([…], BD Biosciences (San Jose, CA)), FITC anti-mouse F4/80 (0.5 μg/mL, BD Biosciences (San Jose, CA)), PeCy7 anti-mouse CD11c (0.5 μg/mL, BD Biosciences (San Jose, CA)), PE anti-mouse NK1.1 (0.5 μg/mL, BD Biosciences (San Jose, CA)), PE anti-mouse DX5 (0.5 μg/mL, BD Biosciences (San Jose, CA)), PerCP-Cy5.5 anti-mouse CD11b (0.5 μg/mL, BD Biosciences (San Jose, CA)). After staining, the cells were washed and fixed (2% formaldehyde), followed by another wash and flow cytometric analysis. The compensation controls were prepared using 0.5 μg/ml. of each antibody with beads UltraComp eBeads™, (ThermoFisher Scientific (Waltham, MA)). All samples were subject to flow cytometric analysis using a LSR Flow Cytometer (BD Biosciences (San Jose, CA)). Flow cytometric data was further analyzed using FlowJo™ analysis software (BD Biosciences (San Jose, CA)). TIL profiles were determined as a measure of TIL subpopulations per gram of tumor tissues or % of total splenocytes.
FFPE mouse tumor sections were immunostained with FITC-conjugated AAL lectin (0.4 μg/mL, Vector Laboratories (Burlingame, CA)), rabbit anti-Mart-1 (0.2 μg/mL, Millipore Sigma (St. Louis, MO), and rabbit anti-S100 (0.2 μg/mL, Agilent Technologies (Santa Clara, CA)), followed by AlexaFluor 594 donkey anti-rabbit secondary antibody (0.05 μg/mL, ThermoFisher Scientific (Waltham, MA)). The slides were mounted with VECTASHIELD®+DAPI (Vector Laboratories (Burlingame, CA)). Microscopy images were acquired using a Keyence BZ-X710 microscope (Osaka, Japan), and images were measured for AAL-positive signal within MARTI-/S 100-positive regions (designated as melanoma regions of interest) using FIJI software (NIH). Statistical analysis was performed using GraphPad Prism™ (San Diego, CA).
Four-to-six-week-old female C3HeN and male C57BL6 mice were purchased from Charles Rivers Laboratories for the indicated experiments. Four-to-six-week-old male NSG mice from the Lau laboratory breeding colony were used for the indicated experiments. Mice were housed in the Comparative Medicine Facility at H. Lee Moffitt Cancer Center and Research Institute. Mouse tumor volumes were measured using length, width and depth divided by 2. Generally, 10 mice were assigned to each indicated treatment cohort, and 1×10^6 melanoma cells were subcutaneously injected into the right rear flanks of the recipient mice. At each experimental endpoint, mice were humanely euthanized using CO2 inhalation in accordance to the American Veterinary Medical Association guidelines. […] All experiments were approved by the Institutional Animal Care and Use Committee (IACUC) in accordance with the National Research Council guidelines.
SW1 or SMI mouse melanoma cells were injected into syngeneic C3H/HeN (or NSG) female or C57BI/6 male mice, respectively. […]

[2] = 100 mM L-fucose in drinking water

C[C@H](O)[C@@H](O)[C@@H](O)[C@H](O)C=O [L-fucose]
cell surface fucosylation relative to DMSO [1]: increased | cell surface PD-L1 (PD-L1): did not find that modulating fucosylation alters | decreased tumor volume (SM1 melanoma tumors; [2]): ~60% | increase in tumor fucosylation (SM1 melanoma tumors; [2]): ~4 fold | absolute counts of each TIL subpopulation (SM1 melanoma tumors; flow cytometry): significantly increased | increase in CD3+ T cell subpopulation (SM1 melanoma tumors; flow cytometry): ~15 fold | increase in CD4+ and CD8+ T cells (SM1 melanoma tumors; flow cytometry): 10-100 fold | increase in total TILs (SM1 melanoma tumors; flow cytometry): ~10 fold | splenic lymphocyte profiles (SM1 melanoma tumors; flow cytometry): did not significantly alter
